Source: patent publication US20090197856A1, “ANTIVIRAL COMPOUNDS” (Genelabs Technologies, Inc., priority 2007, published 2009)

Molecular target: T1, NS5B (Hepatitis C virus genotype 1b, UniProt Q9WMX2)
T1 construct: 3 nM NS5B, 20 nM polyC RNA template
Test: Polymerase assay, incorporation of radiolabeled GTP with biotinylated oligoG13 primer and polycytidylic acid RNA template
Type: biochemical
Settings: polyC RNA template, biotin-oligoG13 primer, tritiated GTP, 3 nM NS5B, 30° C., 2 hours
Method: The polymerase activity was also assayed by measuring incorporation of radiolabeled GTP into an RNA product using a biotinylated oligoG13 primer with a polycytidylic acid RNA template. Typically, the assay mixture (40 μL) contains 50 mM HEPES (pH 7.3), 2.5 mM magnesium acetate, 2 mM sodium chloride, 37.5 mM potassium acetate, 5 mM DTT, 0.4 U/mL RNasin, 2.5% glycerol, 3 nM NS5B, 20 nM polyC RNA template, 20 nM biotin-oligoG13 primer, and 0.2 μM tritiated guanosine triphosphate. Test compounds were initially dissolved and diluted in 100% DMSO and further diluted into aqueous buffer, producing a final concentration of 5% DMSO. Typically, compounds were tested at concentrations between 0.2 nM and 10 μM. Reactions were started with addition of tritiated guanosine triphosphate and allowed to continue at 30° C. for 2 hours. Reactions were quenched with 100 μL stop buffer containing 10 mM EDTA and 1 μg/mL streptavidin-coated scintillation proximity beads. Reaction plates were incubated at 4° C. for 10 hours and then incorporation of radioactivity was determined by scintillation counting. The table below lists the IC50 values of compounds determined using this procedure.

IC50	Compound
0.00218 µM	O=C(O)c1ccc2c(C3CCCCC3)c3n(c2c1)CCN1CCC(NC2CCCC2)c2cccc-3c21 (racemic) [Compound 280]
0.00268 µM	NCCC1CCN2CCn3c(c(C4CCCCC4)c4ccc(C(=O)O)cc43)-c3cccc1c32 (single isomer, unassigned) [Compound 302, 4-(2-Aminoethyl)-15-cyclohexyl-5,6,8,9-tetrahydro-4H-indolo[1′,2′:4,5][1,4]diazepino[6,7,1-ij]quinoline-12-carboxylic acid]
0.003 µM	O=C(O)c1ccc2c(C3CCCCC3)c3n(c2c1)CCCn1cc(N2CCCCC2)c2cccc-3c21 [Compound 261]
0.009 µM	CC1(C)C(=O)N2CCCn3c(c(C4CCCCC4)c4ccc(C(=O)O)cc43)-c3cccc1c32 [Compound 265, 12-cyclohexyl-1,1-dimethyl-2-oxo-1,2,5,6-tetrahydro-4H-[1,5]diazocino[1,2-a:5,4,3-h′i′]diindole-9-carboxylic acid]
0.011 µM	CCC1(CC)C(=O)N2CCCn3c(c(C4CCCCC4)c4ccc(C(=O)O)cc43)-c3cccc1c32 [Compound 266, 12-cyclohexyl-1,1-diethyl-2-oxo-1,2,5,6-tetrahydro-4H-[1,5]diazocino[1,2-a:5,4,3-h′i′]diindole-9-carboxylic acid]
0.01 µM	CCC1(CC)C(=O)N2CCCn3c(c(C4CCCCC4)c4ccc(C(=O)O)cc43)-c3ccc(F)c1c32 [Compound 267, 12-cyclohexyl-1,1-diethyl-15-fluoro-2-oxo-1,2,5,6-tetrahydro-4H-[1,5]diazocino[1,2-a:5,4,3-h′i′]diindole-9-carboxylic acid]
0.021 µM	O=C(O)c1ccc2c(C3CCCCC3)c3n(c2c1)CCCN1C(=O)C2(CC2)c2cccc-3c21 [Compound 269, 12′-cyclohexyl-2′-oxo-5′,6′-dihydro-4′H-spiro[cyclopropane-1,1′-[1,5]diazocino[1,2-a:5,4,3-h′i′]diindole]-9′-carboxylic acid]
0.026 µM	O=C(O)c1ccc2c(C3CCCCC3)c3n(c2c1)CCCN1C(=O)Cc2cccc-3c21 [Compound 270, 12-cyclohexyl-2-oxo-1,2,5,6-tetrahydro-4H-[1,5]diazocino[1,2-a:5,4,3-h′i′]diindole-9-carboxylic acid]

Molecular target: T2, HCV-NS5b (Hepatitis C virus genotype 1b, UniProt Q9WMX2)
T2 construct: (His)6 (C); made in house; host or cells: XL-1 cells (E. coli), IPTG-inducible plasmid
Test: HCV-NS5b enzyme assay using homopolymer substrate
Type: biochemical
Settings: not given
Excerpt: The coding sequence of NS5b protein was cloned by PCR from pFKI389luc/NS3-3′/ET as described by Lohmann, V., et al. (1999) Science 285, 110-113 using the primers shown on page 266 of WO 2005/012288
The cloned fragment is missing the C terminus 21 amino acid residues. The cloned fragment was inserted into an IPTG-inducible (isopropyl-β-D-thiogalactopyranoside) expression plasmid that provides an epitope tag (His)6 at the carboxy terminus of the protein.
The recombinant enzyme was expressed in XL-1 cells and after induction of expression, the protein was purified using affinity chromatography on a nickel-NTA (nitrilotriacetic acid) column. Storage condition was 10 mM Tris-HCl pH 7.5, 50 mM NaCl, 0.1 mM EDTA (ethylenediaminetetraacetic acid), 1 mM DTT (dithiothreotol), 20% glycerol at −20° C.
The polymerase activity was assayed by measuring incorporation of radiolabeled UTP into a RNA product using a biotinylated, homopolymeric template. The template was formed by annealing adenosine homopolymer to uridine 20-mer capped with a 5′-biotin group (biotin-U^20) in the ratio of 1:4. Typically, the assay mixture (50 μL) contained 25 mM Tris-HCl (pH 7.5), 40 mM KCl, 0.3 mM MgCl2, 0.05 mM EDTA, 0.2 unit/μL Superase RNAse Inhibitor, 5 mM DTT, 30 μM UTP (Uridine triphosphate), including [^3H]-UTP (uridine triphosphate) at 0.4 μCi/μL with final concentration of 1 μM, and 50 nM of homopolymeric template. Test compounds were initially dissolved in 100% DMSO and further diluted in aqueous buffer containing 5% DMSO. Typically, compounds were tested at concentrations between 2 nM and 50 μM. Reactions were started with addition of enzyme and allowed to continue at 30° C. for 90 minutes. Reactions were quenched with 8 μL of 100 mM EDTA and reaction mixtures (30 μL) were transferred to streptavidin-coated scintillation proximity microtiter plates (FlashPlates) and incubated at room temperature overnight. Incorporation of radioactivity was determined by scintillation counting.
Inhibitor IC50 values were determined by adding test compound as ten point, two-fold serial dilutions in 100% DMSO with a final reaction concentration of 5%. IC50 was calculated by plotting the % inhibition against compound concentration and fitting the data to a constrained four parameter sigmoidal curve, equivalent to the “four parameter logistic equation”:
Where Bottom is the minimum Y value, Top is the maximum Y value, and Hillslope is the slope of the linear portion of the semi-log curve. Top and Bottom were constrained to values of 0% and 100%, respectively. These analyses were performed using Graphpad Prism v.4.0 (Graphpad Software, Inc.) in conjunction with DS Accord for EXCEL 6.0 (Accelrys, Microsoft Corp.).
The table below lists the IC50 values of compounds determined using the homopolymer substrates.

Compound	IC50
O=C(O)c1ccc2c(C3CCCCC3)c3n(c2c1)CCCn1cc(C(=O)N2CCCC2)c2cccc-3c21 [Compound 437]	0.151 µM
CCN(CC)C(=O)c1cn2c3c(cccc13)-c1c(C3CCCCC3)c3ccc(C(=O)O)cc3n1CCC2 [Compound 438]	0.069 µM
CN1CCN(C(=O)c2cn3c4c(cccc24)-c2c(C4CCCCC4)c4ccc(C(=O)O)cc4n2CCC3)CC1 [Compound 439]	0.182 µM
CN(C)CCNC(=O)c1cn2c3c(cccc13)-c1c(C3CCCCC3)c3ccc(C(=O)O)cc3n1CCC2 [Compound 440]	0.107 µM
CC(C)N(C(=O)c1cn2c3c(cccc13)-c1c(C3CCCCC3)c3ccc(C(=O)O)cc3n1CCC2)C(C)C [Compound 441]	0.271 µM
COCCNC(=O)c1cn2c3c(cccc13)-c1c(C3CCCCC3)c3ccc(C(=O)O)cc3n1CCC2 [Compound 442]	0.123 µM
CC(C)NC(=O)c1cn2c3c(cccc13)-c1c(C3CCCCC3)c3ccc(C(=O)O)cc3n1CCC2 [Compound 443]	0.121 µM
CCN(CC)C(=O)C(=O)c1cn2c3c(cccc13)-c1c(C3CCCCC3)c3ccc(C(=O)O)cc3n1CCC2 [Compound 453]	0.212 µM
O=C(O)c1ccc2c(C3CCCCC3)c3n(c2c1)CCCn1cc(C(=O)CN2CCCCC2)c2cccc-3c21 [Compound 454]	0.348 µM

Same assay, conditions: homopolymer substrate, [3H]-UTP incorporation, 30° C., 90 minutes; read-out: IC50

IC50	Compound
0.181 µM	CC(C)NCCCc1cn2c3c(cccc13)-c1c(C3CCCCC3)c3ccc(C(=O)O)cc3n1CCC2 [Compound 433]
0.172 µM	O=C(O)c1ccc2c(C3CCCCC3)c3n(c2c1)CCCn1cc(CCCN2CCCCC2)c2cccc-3c21 [Compound 434]
0.171 µM	O=C(O)c1ccc2c(C3CCCCC3)c3n(c2c1)CCCn1cc(CCCN2CCCC2)c2cccc-3c21 [Compound 435]
0.333 µM	CCN(CC)CCCc1cn2c3c(cccc13)-c1c(C3CCCCC3)c3ccc(C(=O)O)cc3n1CCC2 [Compound 436]
0.215 µM	N#Cc1cn2c3c(cccc13)-c1c(C3CCCCC3)c3ccc(C(=O)O)cc3n1CCC2 [Compound 444]
0.103 µM	O=C(O)c1ccc2c(C3CCCCC3)c3n(c2c1)CCCn1cc(-c2nnn[nH]2)c2cccc-3c21 [Compound 445]
0.169 µM	N=C(N)c1cn2c3c(cccc13)-c1c(C3CCCCC3)c3ccc(C(=O)O)cc3n1CCC2 [Compound 446]
0.059 µM	NC1CCN2CCn3c(c(C4CCCCC4)c4ccc(C(=O)O)cc43)-c3cc(F)cc1c32 (stereo not shown) [Compound 447]
0.253 µM	CN1CCN(CCc2cn3c4c(cccc24)-c2c(C4CCCCC4)c4ccc(C(=O)O)cc4n2CCC3)CC1 [Compound 449]
0.325 µM	CCN(CC)CCc1cn2c3c(cccc13)-c1c(C3CCCCC3)c3ccc(C(=O)O)cc3n1CCC2 [Compound 452]
0.16 µM	O=C(O)c1ccc2c(C3CCCCC3)c3n(c2c1)CCCn1cc(Cl)c2cccc-3c21 [Compound 455]
0.125 µM	O=C(O)c1ccc2c(C3CCCCC3)c3n(c2c1)CCCn1ccc2c(Cl)ccc-3c21 [Compound 456]
0.195 µM	O=C(O)c1ccc2c(C3CCCCC3)c3n(c2c1)CCCn1cc(CN2CCCCC2)c2c(Cl)ccc-3c21 [Compound 457]
0.196 µM	CN1CCN(Cc2cn3c4c(ccc(Cl)c24)-c2c(C4CCCCC4)c4ccc(C(=O)O)cc4n2CCC3)CC1 [Compound 458]
0.16 µM	CCN(C)Cc1cn2c3c(ccc(Cl)c13)-c1c(C3CCCCC3)c3ccc(C(=O)O)cc3n1CCC2 [Compound 459]
0.211 µM	COc1ccc2c3c1ccn3CCCn1c-2c(C2CCCCC2)c2ccc(C(=O)O)cc21 [Compound 460]
0.368 µM	COc1ccc2c3c1c(CN1CCCCC1)cn3CCCn1c-2c(C2CCCCC2)c2ccc(C(=O)O)cc21 [Compound 461]
0.414 µM	CCN(C)Cc1cn2c3c(ccc(OC)c13)-c1c(C3CCCCC3)c3ccc(C(=O)O)cc3n1CCC2 [Compound 462]
2.06 µM	COc1ccc2c3c1c(CNC(C)C)cn3CCCn1c-2c(C2CCCCC2)c2ccc(C(=O)O)cc21 [Compound 463]
0.96 µM	O=C(O)c1ccc2c(C3CCCCC3)c3n(c2c1)CCCn1cc(CN2CCCCC2)c2ccnc-3c21 [Compound 464]
1.72 µM	CCN(CC)Cc1cn2c3c(nccc13)-c1c(C3CCCCC3)c3ccc(C(=O)O)cc3n1CCC2 [Compound 465]
0.085 µM	O=C(O)c1ccc2c(C3CCCCC3)c3n(c2c1)CCCn1ccc2cc(F)cc-3c21 [Compound 466]
0.095 µM	O=C(O)c1ccc2c(C3CCCCC3)c3n(c2c1)CCCn1cc(CN2CCCCC2)c2cc(F)cc-3c21 [Compound 467]
0.084 µM	O=C(O)c1ccc2c(C3CCCCC3)c3n(c2c1)CCn1cc(CN2CCCCC2)c2c(F)ccc-3c21 [Compound 468]
0.662 µM	COc1ccc2c3c1c(CN1CCN(C)CC1)cn3CCCn1c-2c(C2CCCCC2)c2ccc(C(=O)O)cc21 [Compound 469]
0.061 µM	O=C(O)c1ccc2c(C3CCCCC3)c3n(c2c1)CCN1CCC(NC2CCCCC2)c2cccc-3c21 (stereo not shown) [compound 281]
